Values joined by “and” are separate entries in the source; they are usually repeats but may differ in a detail not shown here. Identical values can stand only once.
Experiments:
[1] = biological target: T1, MMP9 mediated gelatinase activity (Rattus norvegicus, UniProt P50282); assay: In situ zymography of gelatinase activity in livers of SCW-induced rats dosed with compound; assay type: in vivo; settings: for Liver gelatinase Intensity, Mean / Liver gelatinase Intensity, individual rats: Day 25-28
T1 construct: from tissue; host or cells: liver cryosections of female Lewis rats
Source text: In situ zymography provides an alternative approach to assess active MMP9 in tissues (J Histochem Cytochem; 2004; 52:711-722). Tissue sections are overlain with fluorescein-conjugated gelatin wherein the conjugation is sufficiently dense to cause the fluorescein to be dye-quenched (DQ). Proteolytic degradation of the DQ-gelatin releases the fluorescein from the quenching effect giving rise to bright green fluorescence at the site of degradation. Because in situ zymography requires the use of frozen sections, calcified tissues are problematic. However, an additional feature of the SCW arthritis model is the development of hepatic granulomatous disease (J Immunol; 1986; 137:2199-2209), and MMP9 reportedly plays a role in macrophage recruitment in the granulomas response to mycobacteria (Infect Immun; 2006; 74:6135-6144). Consequently, granulomatous livers from SCW-treated rats were assessed for active MMP9 by in situ zymography.
As described above, Female Lewis (LEW/N) rats, 5-6 weeks of age (80-100 g) were injected (i.p.) with saline or SCW PG-PS. On day 28, when the granulomatous response was well established, animals were sacrificed and livers were frozen in OCT cryo-sectioning medium and 10 μm sections were cut on a Cryome HM 500 M cryotome and mounted on glass microscope slides. Sections were air dried briefly. MMP9 was confirmed as the source of the gelatinase activity in the liver by treating liver sections with monoclonal antibodies directed against the active site of the two major gelatinases MMP9 and MMP2. Liver sections overlain with 50 μL of 100 μg/mL neutralizing mouse monoclonal antibodies directed against MMP9 (Calbiochem, clone 6-6B), or MMP2 (Millipore, clone CA-4001), or with PBS for 1 hr at room temperature. Tissues were rinsed once with PBS, blotted, and briefly air dried and then overlain with DQ-gelatin (Invitrogen) dissolved to 1 mg/mL in deionized water and then diluted 1:10 in 1% wt/vol low gelling point agarose type VII (Sigma) in PBS. The sections were covered with coverslips, incubated in the dark at room temperature for 20 min, and imaged on an Olympus IX80 inverted microscope fitted with fluorescence optics, using SlideBook™ imaging software (Intelligent Imaging Innovations, Inc., Philadelphia, Pa.; version 5.0). Fluorescence intensity was determined (Table 9). When compared to a saline-treated rat, gelatinase activity was abundantly expressed in granulomatous liver sections obtained from a rat with SCW arthritis.
Next, liver in situ zymography was used to assess the relative presence of active MMP9 in rats dosed with vehicle vs. Compound α. Female Lewis (LEW/N) rats, 5-6 weeks of age (80-100 g) were injected (i.p.) with saline or SCW PG-PS. Commencing on day 25, randomized groups of rats (n=3 rats/group) received vehicle or 20 or 50 mg/kg Compound α BID by oral gavage. Vehicle consisted of an aqueous mixture containing 2% (v:v) N-methylpyrrolidone, 5% (v:v) glycerine, and 20% (w:v) captisol. Treatment continued daily through the morning of day 28.
Four hrs after the AM dose on day 28, rats were sacrificed and livers assessed for active MMP9 by in situ zymography (Table 10). Gelatinase activity was increased markedly in SCW-induced rats, but activity was reduced by approximately 80% in animals treated with 50 mg/kg Compound α.

[2] = tested on: rats with SCW-induced arthritis; assay: Efficacy in rats with SCW-induced arthritis (ankle thickness, clinical score); assay type: in vivo, rat
Procedure: To induce arthritis, Female Lewis (LEW/N) rats, 5-6 weeks of age (80-100 g) were injected (i.p.) with SCW PG-PS as described above. Eighteen days later, arthritis was well established. Calipers were used to measure the width (anterior to posterior surface) of the left and right hind ankles of each rat. Each ankle was measured 3 times and averaged, and treatment groups were randomized based on ankle thickness (Table 7). Commencing on day 18, randomized groups of arthritic rats (n=5 rats/group) received vehicle or 5, 20, or 50 mg/kg Compound α BID by oral gavage. Vehicle consisted of an aqueous mixture containing 2% (v:v) N-methylpyrrolidone, 5% (v:v) glycerine, and 20% (w:v) captisol. Treatment continued daily through the morning of day 26.
By day 18 mean ankle thickness was increased an average of >4.4 mm compared to disease free rats. Rats treated with vehicle alone continued to gradually develop a more severe arthritis based on ankle thickness measurements over the eight-day treatment period (Table 7). […] By day 26, the disease associated increase in ankle thickness had been reduced 27, 37, and 46 percent by 5, 20, and 50 mg/kg Compound α, respectively.
Hind paw inflammation clinical scores were assigned based on swelling and erythema.

T1 sequence (P50282 108-708): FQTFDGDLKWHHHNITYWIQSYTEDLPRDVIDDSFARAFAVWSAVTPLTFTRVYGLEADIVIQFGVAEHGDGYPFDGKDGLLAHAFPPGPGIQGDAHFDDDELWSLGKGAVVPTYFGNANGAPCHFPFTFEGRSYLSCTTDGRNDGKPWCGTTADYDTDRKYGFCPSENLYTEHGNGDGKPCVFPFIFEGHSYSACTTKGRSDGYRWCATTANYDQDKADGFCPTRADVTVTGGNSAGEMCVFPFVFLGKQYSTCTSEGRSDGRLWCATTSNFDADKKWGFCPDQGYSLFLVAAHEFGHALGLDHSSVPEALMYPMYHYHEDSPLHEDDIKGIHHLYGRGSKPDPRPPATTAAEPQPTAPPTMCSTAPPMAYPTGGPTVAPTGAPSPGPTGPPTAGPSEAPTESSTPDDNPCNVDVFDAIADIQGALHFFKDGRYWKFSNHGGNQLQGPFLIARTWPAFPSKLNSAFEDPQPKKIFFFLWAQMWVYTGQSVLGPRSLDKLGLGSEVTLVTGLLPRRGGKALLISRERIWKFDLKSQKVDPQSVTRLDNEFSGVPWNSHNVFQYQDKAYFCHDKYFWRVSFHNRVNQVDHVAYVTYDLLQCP

Cc1nc(C)c(-c2csc(Nc3cc(S(N)(=O)=O)ccc3OC(C)C)n2)s1 [Compound α, 3-(2′,4′-Dimethyl-[4,5′]bithiazolyl-2-ylamino)-4-isopropoxy-benzenesulfonamide.HBr]
Liver gelatinase Intensity, Mean ([1]; 20 mg/kg BID oral): 55.2 RLU × 10^6 | Liver gelatinase Intensity, individual rats ([1]; 20 mg/kg BID oral): 43.0 RLU × 10^6 and 69.0 RLU × 10^6 and 53.7 RLU × 10^6 | Liver gelatinase Intensity, Mean ([1]; 50 mg/kg BID oral): 11.1 RLU × 10^6 | Liver gelatinase Intensity, individual rats ([1]; 50 mg/kg BID oral): 3.2 RLU × 10^6 and 25.6 RLU × 10^6 and 4.5 RLU × 10^6 | reduction of liver gelatinase activity ([1]; 50 mg/kg BID oral, day 28): approximately 80% | Day 26 % Inh of disease associated increase in ankle thickness ([2]; 5 mg/kg BID oral): 27% | Day 26 % Inh of disease associated increase in ankle thickness ([2]; 20 mg/kg BID oral): 37% | Day 26 % Inh of disease associated increase in ankle thickness ([2]; 50 mg/kg BID oral): 46%
